The values below come from patent US6114517A, “Methods of modulating tumor necrosis factor α-induced expression of cell adhesion molecules” (Isis Pharmaceuticals Inc., priority 1998, dated 2000).

Type in all cases: cell-based, human
The subject of assay [1] is JNK1 mRNA. The experiment in a line: JNK1 mRNA expression by Northern blot. Particulars: at the concentration tested, FIG. 4. The method, then:
(§1) Human dermal microvascular cells (HMVEC-d; Clonetics, San Diego, Calif.) were cultivated in endothelial basal media (EBM, Clonetics) supplemented with 10% fetal bovine serum (HyClone, Logan, Utah). Cells were grown in 100 mm petri dishes until 70-80% confluent, then washed with PBS and OPTI-MEM (Life Technologies, Inc., Gaithersburg, Md.). The cells were then incubated in the presence of OPTI-MEM and […] LIPOFECTIN (a 1:1 (w/w) liposome formulation of the cationic lipid N-[1-(2,3-dioleyloxy)propyl]-n,n,n-trimethylammonium chloride (DOTMA), and dioleoyl phosphotidylethanolamine (DOPE) in membrane filtered water (Life Technologies, Gaithersburg, Md.), per 100 nM of oligonucleotide followed by addition of oligonucleotide at the appropriate concentrations.
(§2) For determination of mRNA levels by Northern blot, total RNA was prepared from cells by the guanidinium isothiocyanate procedure or by the Qiagen RNAEASY method (Qiagen, Santa Clarita, Calif.) at the indicated times after initiation of oligonucleotide treatment. Northern blot analysis was performed as described in Current Protocols in Molecular Biology (Ausubel, F. M., et al., (eds), 1987, Greene Publishing Assoc. and Wiley Interscience, New York). […] RNA was quantified and normalized to G3PDH mRNA levels using a Molecular Dynamic PHOSPHORIMAGER (Sunnyvale, Calif.). […]

The test system of assay [2] is E-selectin. The experiment in a line: TNF-α-induced E-selectin cell surface expression in HMVEC, flow cytometry. Particulars: Table 9, JNK antisense series. The method, then:
as §1
The effect of c-raf and Ha-ras antisense oligonucleotide treatment on the induction of E-selectin by TNF-α was examined. HMVEC cells were treated with either the c-raf or Ha-ras antisense compound under dose-response conditions or over time at a single dose level followed by stimulation of E-selectin expression by TNF-α for 5 hours. The cell surface expression of E-selectin was determined by flow cytometry analysis. Following oligonucleotide treatment, cells were detached from the plates and analyzed for surface expression of cell adhesion molecules using a Becton Dickinson (San Jose, Calif.) FACScan. TNF-α and FITC conjugated antibody for E-selectin were obtained from R & D Systems (Minneapolis, Minn.). PE-conjugated antibody for ICAM-1 was obtained from Pharmingen (San Diego, Calif.). VCAM-1 antibody was obtained from Santa Cruz Biotechnology, Santa Cruz, Calif. Cell surface expression was calculated using the mean value of fluorescence intensity using 3,000-5,000 cells stained with the appropriate antibody for each sample and time point. Results are expressed as percentage of control (cell surface expression induced by TNF-α in cells that were not treated with oligonucleotides) based upon mean fluorescence intensity.
The effects of c-raf, Ha-ras, and a E-selectin antisense oligonucleotide on TNF-α-induced E-selectin cell surface expression under kinetic conditions were examined. […] To test this, cells were treated, separately, with antisense oligonucleotides to E-selectin, ICAM-1 and VCAM-1 and allowed to recover prior to TNF-α treatment. […] E-selectin cell surface expression was measured by flow cytometry analysis after 5 hours of TNF-A treatment.
A general note: A flow cytometer gives signals particle by particle.

The subject of assay [3] is JNK2 mRNA. The experiment in a line: JNK2 mRNA expression by Northern blot. The note with it: at the concentration tested, FIG. 4. On the procedure: as §1, §2
The subject of assay [4] is JNK2. The experiment in a line: TNF-α-mediated JNK2 kinase activity, isoform-specific JNK assay. The note with it: FIG. 5. The method, then:
To examine the effect of the c-raf antisense oligonucleotide (ISIS 12854, SEQ ID NO. 2) on ERK, JNK, and p38 MAPK activities stimulated by TNF-α, in vitro kinase assays were performed on extracts derived from cells treated with ISIS 12854 (SEQ ID NO. 2). Cells were treated with oligonucleotides and induced with cytokines. At the indicated time, cells were lysed on ice and debris was removed by centrifugation. Protein concentration was measured by Bradford assay. Lysate containing equal amounts of protein were incubated with primary antibody-agarose conjugates (ERK and p38 assay; Santa Cruz Biotechnology, Santa Cruz, Calif.), or with JNK1-specific or JNK2-specific antibodies (JNK assay; Upstate Biotechnology, Lake Placid, N.Y.), overnight at 4° C.
For isoform-specific JNK assays, anti-rabbit IgG conjugated with agarose beads was added to cell extracts following JNK antibody treatment and wash steps and incubated for 2 hours at 4° C. After washing with lysis buffer and kinase buffer, the pelleted beads were incubated with 1 μg of substrate (Elk-1 for ERK, ATF-2 for p38, and c-Jun for JNK MAPK) and 100 […] of ATP for 20 minutes at 37° C. MAPK and JNK assay kits, ATF-2 fusion protein, and antibodies for ATF-2, Elk-1 phospho-ATF-2 were purchased from New England BioLabs (Boston, Mass.). Reactions were terminated by the addition of 3×SDS sample buffer followed by boiling. […]

Turning to “GoToCoCoGoGsGsCsCsAsGsGsCsCsAsAoAoGoToC [ISIS 15354]”, the “JNK1 mRNA expression” value in assay [1] is “without affecting”. Further, the “% Cell Surface Expression (E-selectin)” value in assay [2] (20 nM) amounted to 32%; in assay [2] (50 nM), 29%; in assay [2] (100 nM), 33%. Besides, the “% Cell Surface Inhibition (E-selectin)” value was 68% in assay [2] (20 nM), 71% in assay [2] (50 nM) and 67% in assay [2] (100 nM). Moreover, the “JNK2 mRNA expression” value in assay [3] is “nearly complete inhibition”. Besides, the “TNF-α-mediated induction of JNK2 activity” value in assay [4] is listed as “effectively reduced”.
